Test [1] has as its system trypsin. The experiment in a line: SPR interaction with trypsin. It counts as binding. Conditions: for SPR binding to trypsin (in words): peptide immobilized on CM4 chip; for ka, association rate constant / kd, dissociation rate constant: protease 1 nM to 5 μM; for Kd: read-out: KD, dissociation constant. The method, then: (§1) The interaction of the peptides with serine proteinases (trypsin, α-chymotrypsin, human neutrophil elastase, pancreatic kallikrein and cathepsin G) was studied using the surface plasmon resonance (SPR) method. The peptides were immobilized on a CM4 sensor chip. […] Kinetic parameters were calculated at 25 °C. Obtained data indicated the formation of tight complexes and eliminated non-specific binding (Table 2).
(§2) The study of the interaction of serine proteinases with rHCIQ2c1 and rHCIQ4c7 was performed on SPR biosensor Biacore 3000 (GE Healthcare, USA) running under the program “Biacore 3000 Control Software v.1.0”. The evaluation of data was carried out using “Biacore Evaluation v.4.1”. Peptides were covalent immobilized on carboxymethylated surface of the Biacore CM4 sensor chip (GE Healthcare, USA) activated by EDC/NHS (N-hydroxysuccinimide/1-ethyl-3-(3-dimethylaminopropyl)carbodiimide hydrochloride) mixture by the injection of peptide solution (100 µg/ml) in 10 mM sodium acetate (pH 5.5) during 10 min with flow rate 5 µl/min. Quantities of immobilized peptides were 970 RU (resonance units, 1 RU corresponds 1 pg peptide) for rHCIQ2c1 and 460 RU for rHCIQ4c7. In all of the experiments, the flow cell 1 (Fc1) without the immobilized polypeptides was considered as the reference cell for the correction of the signal responses. HBS (HEPES buffered saline-NaCl): 0.15 M NaCl, 0.01 M HEPES, pH 7.4 (cat. no. BR-1003-69, GE Healthcare, USA) was used as the running buffer for the SPR assays. Protease solutions at concentrations from 1 nM to 5 μM were passed through measuring and control biosensor cells at 25 °C during 5 min with a flow rate 5 µl/min. Further complex breakdown was recorded during at most 10 min. After each cycle of SPR measurement, the sensing surface was regenerated by the injection of 50 mM NaOH for 0.5 min at a flow rate of 50 μl/min. Changes in Gibbs free energy (ΔG) at 25 °C were calculated by the following equation:1 ΔG=RTlnKD, where KD is the dissociation constant. Changes in enthalpy (ΔH) and entropic term (−TΔS) were calculated from the linear equation:2 ΔG=ΔH−TΔS, using the liner approximation of temperature dependence of ΔG (Van’t Hoff diagram).
(In general: In SPR one partner is held on a chip, and binding of the other changes the refractive index at the surface.)

For test [2], the system named is α-chymotrypsin. The experiment in a line: SPR interaction with α-chymotrypsin. Conditions: for SPR binding to α-chymotrypsin (in words): peptide immobilized on CM4 chip. It counts as binding. The protocol: as §1, §2
Test [3] concerns cathepsin G. The experiment in a line: SPR interaction with cathepsin G. Conditions: for SPR binding to cathepsin G (in words): peptide immobilized on CM4 chip. Type of test: binding. The protocol: as §1, §2
Test [4] concerns trypsin. Put plainly: Thermodynamic parameters of complexes with trypsin. It counts as binding. The note with it: complex with trypsin, SPR. The protocol:
(§3) The magnitudes of free energy change (∆G) of the complexes differed slightly from the same complexes of HCRG1 and HCRG2 and were lower than for the InhVJ ones.
The study of the interaction of serine proteinases with rHCIQ2c1 and rHCIQ4c7 was performed on SPR biosensor Biacore 3000 (GE Healthcare, USA) running under the program “Biacore 3000 Control Software v.1.0”. The evaluation of data was carried out using “Biacore Evaluation v.4.1”. Peptides were covalent immobilized on carboxymethylated surface of the Biacore CM4 sensor chip (GE Healthcare, USA) activated by EDC/NHS (N-hydroxysuccinimide/1-ethyl-3-(3-dimethylaminopropyl)carbodiimide hydrochloride) mixture by the injection of peptide solution (100 µg/ml) in 10 mM sodium acetate (pH 5.5) during 10 min with flow rate 5 µl/min. Quantities of immobilized peptides were 970 RU (resonance units, 1 RU corresponds 1 pg peptide) for rHCIQ2c1 and 460 RU for rHCIQ4c7. In all of the experiments, the flow cell 1 (Fc1) without the immobilized polypeptides was considered as the reference cell for the correction of the signal responses. […] Further complex breakdown was recorded during at most 10 min. […] Changes in enthalpy (ΔH) and entropic term (−TΔS) were calculated from the linear equation:2 ΔG=ΔH−TΔS, using the liner approximation of temperature dependence of ΔG (Van’t Hoff diagram).

In test [5] the test system is α-chymotrypsin. Put plainly: Thermodynamic parameters of complexes with α-chymotrypsin. Type of test: binding. The note with it: complex with α-chymotrypsin, SPR. The method, then:
as §3, §2

In test [6] the test system is hKv1.3. The experiment in a line: Two-electrode voltage clamp, hKv1.3 in X. laevis oocytes. Type of test: cell-based. Conditions: 10 μM, 18–22 °C, n ≥ 3. The protocol: For the expression of the voltage-gated potassium channels (rKv1.1, rKv1.2, hKv1.3, rKv1.4, rKv1.5, rKv1.6, Shaker IR and hERG) in X. laevis oocytes, the linearized plasmids were transcribed using the T7 or SP6 mMESSAGE-mMACHINE transcription kit (Ambion, USA). The harvesting of stage V–VI oocytes from an anaesthetized female X. laevis frog was previously described. Oocytes were injected with 50 nl of cRNA at a concentration of 1 ng/nl using a micro-injector (Drummond Scientific, USA). The oocytes were incubated in a solution containing (in mM): NaCl, 96; KCl, 2; CaCl2, 1.8; MgCl2, 2; HEPES, 5 (pH 7.4), supplemented with 50 mg/l gentamycin sulfate.
Two-electrode voltage-clamp recordings were performed at room temperature (18–22 °C) using a Geneclamp 500 amplifier (Molecular Devices, USA) controlled by a pClamp data acquisition system (Axon Instruments, USA), as described in[47]. Whole cell currents from oocytes were recorded 1–4 days after injection. Bath solution composition was ND96 (in mM): NaCl, 96; KCl, 2; CaCl2, 1.8; MgCl2, 2 and HEPES, 5 (pH 7.4). Voltage and current electrodes were filled with 3 M KCl. The resistances of both electrodes were kept between 0.7 and 1.5 MΩ. […] All data were analysed using pClamp Clampfit 10.0 (Molecular Devices, Downingtown, PA, USA) and Origin 7.5 software (Originlab, Northampton, MA, USA).

The target of test [7] is trypsin. The experiment in a line: Trypsin inhibitory activity (BAPNA, Dixon). Type of test: biochemical. The note with it: BAPNA 0.6 and 1.2 mM, Dixon method; trypsin 208 nM; peptide 0–26.6 µM (rHCIQ2c1), 0–24 µM (rHCIQ4c7); three parallel experiments; error limits 0.1–0.5%. The method, then: The trypsin inhibitory activity of HCIQ peptides was estimated according to the standard procedure using N-α-benzoyl-D,L-arginine p-nitroanilide (BAPNA) as a substrate. The trypsin inhibition constants of rHCIQ2c1 and rHCIQ4c7 were determined by the method of Dixon[74] using substrate (BAPNA) concentrations of 0.6 and 1.2 mM. The trypsin concentration in the reaction mixture was 208 nM. The range of peptide concentrations was 0–26.6 µM for rHCIQ2c1 and 0–24 µM for rHCIQ4c7. The constants (Ki) were calculated based on the results of three parallel experiments. Computational error limits were in the range of 0.1–0.5%.

[8] abbreviates: trypsin, SPR Biacore 3000, peptide immobilized on CM4 chip, HBS pH 7.4, 25 °C.
Where [9] appears, read: α-chymotrypsin, SPR Biacore 3000, peptide immobilized on CM4 chip, HBS pH 7.4, 25 °C, protease 1 nM to 5 μM.
Setting [10] is: cathepsin G, SPR Biacore 3000, peptide immobilized on CM4 chip, HBS pH 7.4, 25 °C, protease 1 nM to 5 μM.

No end group written: not given here.

On to “rHCIQ2c1: recombinant Kunitz-peptide of Heteractis crispa, most prevalent isoform, mature peptide 58 aa, expressed in E. coli (IQGNICSEPKKVGRCRGSFPRFYFDSETGKCTPFIYGGCGGNGNNFETLHACRAICRA; ends and bridges not checked; cysteine pairing not given here)”, for which, in test [1] (SPR), the “SPR binding to trypsin (in words)” value was “specifically binds to all target proteinases”. The “ka, association rate constant” value in test [1] (setting [8]) is 20500 s/M; in test [2] (setting [9]) it was 76900 s/M; in test [3] (setting [10]), 1.29e+06 s/M. For the same substance, the “kd, dissociation rate constant” value in test [1] (setting [8]) stood at 0.00817 s⁻¹; in test [2] (setting [9]) it was 0.00749 s⁻¹; in test [3] (setting [10]) it was 0.000359 s⁻¹. Further, the Kd (commonly the constant that tells how readily two partners part at equilibrium) was determined as 0.251 nM in test [1] (setting [8]); 97.4 nM in test [2] (α-chymotrypsin, SPR Biacore 3000, peptide immobilized on CM4 chip, HBS pH 7.4, 25 °C, read-out: KD, dissociation constant); 0.279 nM in test [3] (cathepsin G, SPR Biacore 3000, peptide immobilized on CM4 chip, HBS pH 7.4, 25 °C, read-out: KD, dissociation constant). For the same substance, the “SPR binding to α-chymotrypsin (in words)” value in test [2] is “specifically binds to all target proteinases”. Besides, the “KA, association constant” value was found to be 1.03e+07 M⁻¹ in test [2] (α-chymotrypsin, SPR Biacore 3000, peptide immobilized on CM4 chip, HBS pH 7.4, 25 °C) and 3.58e+09 M⁻¹ in test [3] (cathepsin G, SPR Biacore 3000, peptide immobilized on CM4 chip, HBS pH 7.4, 25 °C). Further, the “SPR binding to cathepsin G (in words)” value in test [3] is listed as “specifically binds to all target proteinases”. Further, the “∆H, enthalpy change” value is 17.28 kcal/mol in test [4] (10–40 °С, Van't Hoff diagram) and 4.68 kcal/mol in test [5] (10–40 °С, Van't Hoff diagram). The “∆G, Gibbs energy change” value in test [4] (25 °C, ΔG=RTlnKD) is on record as “–54.70 kJ/mol”; in test [5] (25 °C, ΔG=RTlnKD), “–43.70 kJ/mol”. In test [5] (10–40 °С, Van't Hoff diagram), the “T∆S, entropic term” value was found to be 15.12 kcal/mol. Further, the “Activity on Kv1.3” value in test [6] is given as “neither 10 μM of rHCIQ2c1 nor rHCIQ4c7 exerted any activity on the Kv channels”.
For “rHCIQ4c7: recombinant Kunitz-peptide of Heteractis crispa, isoform with the rare substitution Gly17Glu”, affinity in test [7] was put at a Ki of 190 nM. In test [1] (SPR, 25 °C), the “KD with trypsin relative to rHCIQ2c1” value was “higher by three orders than for rHCIQ2c1”. Further, the “SPR binding to trypsin (in words)” value in test [1] (SPR) is “bounds to trypsin and elastase only”. Moreover, in test [1] (setting [8]), the “KA, association constant” value came to 4.83e+06 M⁻¹; the “ka, association rate constant” value worked out at 22500 s/M; the “kd, dissociation rate constant” value amounted to 0.00466 s⁻¹; the Kd is 207 nM. In addition, the “SPR binding to α-chymotrypsin (in words)” value in test [2] was “bounds to trypsin and elastase only”. Also, in test [3], the “SPR binding to cathepsin G (in words)” value was “bounds to trypsin and elastase only”. In addition, the “Activity on Kv1.3” value in test [6] is listed as “neither 10 μM of rHCIQ2c1 nor rHCIQ4c7 exerted any activity on the Kv channels”.

(Values after publication PMC7060258 (Scientific Reports, 2020).)
